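Protocol summary: plate cells (96-well), add compound at 5 concentrations, incubate 48 h, interpolate endpoints linearly. TGI: total growth inhibition.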
Columns and labels:
Assay in all cases: DTP human tumour cell line panel, 48 h
[1] = system: 786-0 renal
[2] = system: A498 renal
[3] = system: A549 NSCLC
[4] = system: ACHN renal
[5] = system: BT-549 breast
[6] = system: CAKI-1 renal
[7] = system: CCRF-CEM leukemia
[8] = system: COLO 205 colon
[9] = system: DU-145 prostate
[10] = system: EKVX NSCLC
[11] = system: HCC-2998 colon
[12] = system: HCT-116 colon
[13] = system: HCT-15 colon
[14] = system: HOP-62 NSCLC
[15] = system: HOP-92 NSCLC
[16] = system: HS 578T breast
[17] = system: HT29 colon
[18] = system: IGROV1 ovarian
[19] = system: K-562 leukemia
[20] = system: KM12 colon
[21] = system: LOX IMVI melanoma
[22] = system: M14 melanoma
[23] = system: MALME-3M melanoma
[24] = system: MCF7 breast
[25] = system: MDA-MB-231 breast
[26] = system: MDA-MB-435
[27] = system: MDA-N
[28] = system: MOLT-4 leukemia
[29] = system: NCI-H226 lung
[30] = system: NCI-H23 lung
[31] = system: NCI-H460 lung
[32] = system: NCI-H522 lung
[33] = system: NCI/ADR-RES ovarian
[34] = system: OVCAR-3 ovarian
[35] = system: OVCAR-4 ovarian
[36] = system: OVCAR-5 ovarian
[37] = system: OVCAR-8 ovarian
[38] = system: PC-3 prostate
[39] = system: RPMI-8226 leukemia
[40] = system: RXF 393 renal
[41] = system: SF-268 CNS
[42] = system: SF-295 CNS
[43] = system: SF-539 CNS
[44] = system: SK-MEL-2 melanoma
[45] = system: SK-MEL-28 melanoma
[46] = system: SK-MEL-5 melanoma
[47] = system: SK-OV-3 ovarian
[48] = system: SN12C renal
[49] = system: SNB-19 CNS
[50] = system: SNB-75 CNS
[51] = system: SR leukemia
[52] = system: SW-620 colon
[53] = system: T-47D breast
[54] = system: TK-10 renal
[55] = system: U251 CNS
[56] = system: UACC-257 melanoma
[57] = system: UACC-62 melanoma
[58] = system: UO-31 renal
[59] = system: HL-60(TB) leukemia

For C/C(=C\c1ccccc1)C(=O)NCc1ccc(C(=O)NCCc2ccccc2)cc1, the TGI [1] was over 100 µM, the TGI [2] was over 100 µM and the TGI [3] was over 100 µM. It also gave a TGI [4] of over 100 µM, a TGI [5] of over 100 µM and a TGI [6] of over 100 µM. The TGI [7] was over 100 µM, the TGI [8] was over 100 µM and the TGI [9] was over 100 µM. For the same compound, the TGI [10] was over 100 µM, the TGI [11] was over 100 µM and the TGI [12] was over 100 µM. For the same compound, the TGI [13] was over 100 µM, the TGI [14] was 10.8 µM and the TGI [15] was 99.1 µM. It also gave a TGI [16] of over 100 µM, a TGI [17] of 6.81 µM and a TGI [18] of over 100 µM. For the same compound, the TGI [19] was over 100 µM, the TGI [20] was over 100 µM and the TGI [21] was over 100 µM. The TGI [22] was over 100 µM, the TGI [23] was over 100 µM and the TGI [24] was over 100 µM. For the same compound, the TGI [25] was over 100 µM, the TGI [26] was over 100 µM and the TGI [27] was over 100 µM. For the same compound, the TGI [28] was over 100 µM, the TGI [29] was 66.1 µM and the TGI [30] was over 100 µM. For the same compound, the TGI [31] was over 100 µM, the TGI [32] was over 100 µM and the TGI [33] was over 100 µM. For the same compound, the TGI [34] was over 100 µM, the TGI [35] was over 100 µM and the TGI [36] was over 100 µM. For the same compound, the TGI [37] was 14.7 µM, the TGI [38] was over 100 µM and the TGI [39] was over 100 µM. The TGI [40] was 41.4 µM, the TGI [41] was over 39.5 µM and the TGI [42] was 98.8 µM. For the same compound, the TGI [43] was over 81.9 µM, the TGI [44] was over 100 µM and the TGI [45] was over 100 µM. It also gave a TGI [46] of over 100 µM, a TGI [47] of 51.8 µM and a TGI [48] of over 100 µM. It also gave a TGI [49] of over 100 µM, a TGI [50] of 19.5 µM and a TGI [51] of over 100 µM. The TGI [52] was over 100 µM, the TGI [53] was over 100 µM and the TGI [54] was over 100 µM. For the same compound, the TGI [55] was over 100 µM, the TGI [56] was over 100 µM and the TGI [57] was over 100 µM. For the same compound, the TGI [58] was over 100 µM.
Compound O=c1oc2ccc([N+](=O)[O-])cc2c(Nc2ccc3c(c2)Sc2ccccc2O3)c1[N+](=O)[O-] has a TGI [1] of 39.9 µM, a TGI [3] of 73.9 µM and a TGI [4] of 72 µM. It also gave a TGI [5] of 64.3 µM, a TGI [6] of 50.6 µM and a TGI [7] of 50.4 µM. It also gave a TGI [8] of 34.8 µM, a TGI [9] of 99.5 µM and a TGI [10] of 68.8 µM. It also gave a TGI [11] of 26.4 µM, a TGI [12] of 30.5 µM and a TGI [13] of 35 µM. For the same compound, the TGI [59] was 46.8 µM, the TGI [14] was 44.7 µM and the TGI [15] was 41.6 µM. The TGI [16] was 90.9 µM, the TGI [17] was 74.3 µM and the TGI [18] was 54.9 µM. The TGI [19] was 88.3 µM, the TGI [20] was 49.8 µM and the TGI [21] was 36.2 µM. For the same compound, the TGI [22] was 41.6 µM, the TGI [23] was over 100 µM and the TGI [24] was 56.7 µM. The TGI [25] was 38.8 µM, the TGI [26] was 85 µM and the TGI [27] was 88.8 µM. The TGI [29] was 35.8 µM, the TGI [30] was 39.1 µM and the TGI [31] was 57.8 µM. For the same compound, the TGI [32] was 33.8 µM, the TGI [33] was 85.5 µM and the TGI [34] was 31 µM. For the same compound, the TGI [35] was 98.2 µM, the TGI [36] was 47.2 µM and the TGI [37] was 77.3 µM. For the same compound, the TGI [38] was 40.8 µM, the TGI [39] was 54.2 µM and the TGI [40] was 40.2 µM. For the same compound, the TGI [41] was 61.6 µM, the TGI [42] was 94.3 µM and the TGI [43] was 37.7 µM. The TGI [44] was 40.4 µM, the TGI [45] was 69.2 µM and the TGI [46] was 41.1 µM. For the same compound, the TGI [47] was 47.6 µM, the TGI [48] was 51.2 µM and the TGI [49] was 36.2 µM. For the same compound, the TGI [50] was 79 µM, the TGI [51] was 55.2 µM and the TGI [52] was 80.6 µM. For the same compound, the TGI [53] was over 100 µM, the TGI [54] was 58.3 µM and the TGI [55] was 33.6 µM. It also gave a TGI [56] of 69 µM, a TGI [57] of 32.3 µM and a TGI [58] of 37.8 µM.
